From patent US7491794B2, “Macrocyclic compounds as inhibitors of viral replication” (Intermune, Inc., priority 2003, dated 2009)

Target: T1, NS3-NS4 protease (Hepatitis C virus genotype 1a, UniProt P27958)
T1 construct: Recombinant E. coli or Baculovirus full-length NS3 was diluted to 3.33 μM with assay buffer; made in house; host or cells: E. coli or baculovirus (BV) system
Experiment: NS3-NS4 protease assay / NS3 inhibition assay, Section D
Type: biochemical
Procedure: NS3-NS4 Protease Assay NS3 complex formation with NS4A-2.
Recombinant E. coli or Baculovirus full-length NS3 was diluted to 3.33 μM with assay buffer and transferred material to an eppendorf tube and place in water bath in 4° C. refrigerator. The appropriate amount of NS4A-2 to 8.3 mM in assay buffer was added to equal the volume of NS3 in step 2.1.1 (conversion factor −3.8 mg/272 μL assay buffer). The material was transferred to an eppendorf tube and place in water bath in 4° C. refrigerator.
After equilibration to 4° C., equal volumes of NS3 and NS4A-2 solutions were combined in an eppendorf tube, mix gently with a manual pipettor, and incubate mixture for 15 minutes in the 4° C. water bath. Final concentrations in the mixture are 1.67 μM NS3, 4.15 mM NS4A-2 (2485-fold molar excess NS4A-2).
After 15 minutes at 4° C., the NS3/NS4A-2 eppendorf tube was removed and placed in a room temperature water bath for 10 minutes. NS3/NS4A-2 was alliquoted at appropriate volumes and store at −80° C. (E. coli NS3 run at 2 nM in assay, aliquot at 25 μL. BV NS3 run at 3 nM in assay, aliquot at 30 μL).
Sample compounds were dissolved to 10 mM in DMSO then diluted to 2.5 mM (1:4) in DMSO.
The E. coli. NS3/NS4A-2 was diluted to 4 nM NS3 (1:417.5 of 1.67 μM stock−18 μL 1.67 μM stock+7497 μL assay buffer).
The BV NS3/NS4A-2 was diluted to 6 nM NS3 (1:278.3 of 1.67 μM stock−24 μL 1.67 μM stock+6655 μL assay buffer).
Using the manual multichannel pipettor, careful not to introduce bubbles into the plate, add 50 μL assay buffer to wells A01-H01 of a black Costar 96-well polypropylene storage plate.
Using the manual multichannel pipettor, careful not to introduce bubbles into the plate, add 50 μL of diluted NS3/NS4A-2 from step 2.2.6 to wells A02-H12 of plate in step 2.2.7.
Using the manual multichannel pipettor, careful not to introduce bubbles into the plate, transfer 25 μL of the wells in drug dilution plate in step 2.2.5 to corresponding wells in assay plate in step 2.2.8. Change tips on multichannel pipettor for each row of compounds transferred.
Using the manual multichannel pipettor, careful not to introduce bubbles into the plate, mix the wells from the assay plate in step 2.2.9 by aspirating and dispensing 35 μL of the 75 μL in each well five times. Change tips on multichannel pipettor for each row of wells mixed.
Cover plate with a polystyrene plate lid and pre-incubate the plate from step 2.2.10 containing NS3 protease and sample compounds 10 minutes at room temperature.
While plate from step 2.2.11 is pre-incubating, dilute RETS1 substrate in a 15 mL polypropylene centrifuge tube.
Dilute RETS1 substrate to 8 μM (1:80.75 of 646 μM stock−65 μL 646 μM stock+5184 μL assay buffer).
After the plate in step is done pre-incubating, and using the manual multichannel, add 25 μL of substrate to all wells on the plate. Quickly mix the plate as in step 2.2.10, mixing 65 μL of the 100 μL in the wells.
Read the plate in kinetic mode on the Molecular Devices SpectraMax Gemini XS plate reader. Reader settings: Read time: 30 minutes, Interval: 36 seconds, Reads: 51, Excitation k: 335 nm, Emission k: 495 nm, cutoff: 475 nm, Automix: off, Calibrate: once, PMT: high, Reads/well: 6, Vmax pts: 21 or 28/51 depending on length of linearity of reaction.
IC50s are determined using a four parameter curve fit equation, and converted to Ki's using the following Km's:
where Ki=IC50/(1+[S]/Km))

T1 sequence (P27958 1027-1657): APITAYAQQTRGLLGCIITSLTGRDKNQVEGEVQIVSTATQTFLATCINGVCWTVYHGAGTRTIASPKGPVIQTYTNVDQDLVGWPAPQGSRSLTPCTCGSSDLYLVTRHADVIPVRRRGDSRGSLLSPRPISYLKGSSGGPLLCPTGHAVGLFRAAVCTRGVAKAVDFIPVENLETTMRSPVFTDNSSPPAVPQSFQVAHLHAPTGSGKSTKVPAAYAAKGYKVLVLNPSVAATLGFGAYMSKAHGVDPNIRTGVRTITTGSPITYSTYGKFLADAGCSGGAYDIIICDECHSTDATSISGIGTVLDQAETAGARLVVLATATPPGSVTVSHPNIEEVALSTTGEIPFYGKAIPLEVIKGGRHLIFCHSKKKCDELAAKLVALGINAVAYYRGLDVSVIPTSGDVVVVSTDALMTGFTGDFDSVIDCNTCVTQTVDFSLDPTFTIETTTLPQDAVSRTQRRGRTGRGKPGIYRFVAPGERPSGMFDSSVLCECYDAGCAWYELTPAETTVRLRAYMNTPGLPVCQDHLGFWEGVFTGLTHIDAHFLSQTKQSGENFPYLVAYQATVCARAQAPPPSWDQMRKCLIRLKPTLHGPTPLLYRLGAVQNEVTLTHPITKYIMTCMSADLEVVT

`CC(C)(C)OC(=O)N[C@H]1CCCCC/C=C\[C@@H]2C[C@@]2(C(=O)NS(=O)(=O)C2CC2)NC(=O)[C@@H]2C[C@@H](NC(=O)c3cc4cc(Cl)ccc4[nH]3)CN2C1=O` [Example 32] and `CC(C)(C)OC(=O)N[C@H]1CCCCC/C=C\[C@@H]2C[C@@]2(C(=O)NS(=O)(=O)C2CC2)NC(=O)[C@@H]2C[C@@H](NC(=O)c3cc4cc(F)ccc4[nH]3)CN2C1=O` [Example 34] cannot be ordered by IC50: less than 100 nM for the first, less than 100 nM for the second.

`COc1ccc(C(=O)N[C@@H]2C[C@H]3C(=O)N[C@]4(C(=O)O)C[C@H]4/C=C\CCCCC[C@H](NC(=O)OC(C)(C)C)C(=O)N3C2)cc1C(F)(F)F` [Example 69] and `COc1ccc(C(=O)N[C@@H]2C[C@H]3C(=O)N[C@]4(C(=O)O)C[C@H]4/C=C\CCCCC[C@H](NC(=O)OC(C)(C)C)C(=O)N3C2)cc1` [Example 61] cannot be ordered by IC50: less than 10000 nM for the first, less than 10000 nM for the second.

`CC(C)(C)OC(=O)N[C@H]1CCCCC/C=C\[C@@H]2C[C@@]2(C(=O)NS(=O)(=O)C2CC2)NC(=O)[C@@H]2C[C@@H](NC(=O)c3ccc(Cl)cc3)CN2C1=O` [Example 4] and `COc1ccc(C(=O)N[C@@H]2C[C@H]3C(=O)N[C@]4(C(=O)NS(=O)(=O)C5CC5)C[C@H]4/C=C\CCCCC[C@H](NC(=O)OC(C)(C)C)C(=O)N3C2)cc1` [Example 6] cannot be ordered by IC50: less than 100 nM for the first, less than 100 nM for the second.

`CC(C)(C)OC(=O)N[C@H]1CCCCC/C=C\[C@@H]2C[C@@]2(C(=O)NS(=O)(=O)C2CC2)NC(=O)[C@@H]2C[C@@H](NC(=O)c3cc4cc(OC(F)(F)F)ccc4[nH]3)CN2C1=O` [Example 36] and `CC(C)(C)OC(=O)N[C@H]1CCCCC/C=C\[C@@H]2C[C@@]2(C(=O)NS(=O)(=O)C2CC2)NC(=O)[C@@H]2C[C@@H](NC(=O)c3nc4ccccc4[nH]3)CN2C1=O` [Example 47] cannot be ordered by IC50: less than 100 nM for the first, less than 100 nM for the second.

`CC(C)(C)OC(=O)N[C@H]1CCCCC/C=C\[C@@H]2C[C@@]2(C(=O)NS(=O)(=O)C2CC2)NC(=O)[C@@H]2C[C@@H](NC(=O)c3ccc(Cl)c(Cl)c3)CN2C1=O` [Example 16] and `CC(C)(C)OC(=O)N[C@H]1CCCCC/C=C\[C@@H]2C[C@@]2(C(=O)NS(=O)(=O)C2CC2)NC(=O)[C@@H]2C[C@@H](NC(=O)c3ccc4cc[nH]c4c3)CN2C1=O` [Example 38] cannot be ordered by IC50: less than 100 nM for the first, less than 100 nM for the second.

`CC(C)(C)OC(=O)N[C@H]1CCCCC/C=C\[C@@H]2C[C@@]2(C(=O)O)NC(=O)[C@@H]2C[C@@H](NC(=O)c3cc4ccccc4s3)CN2C1=O` [Example 59] and `CC(C)(C)OC(=O)N[C@H]1CCCCC/C=C\[C@@H]2C[C@@]2(C(=O)O)NC(=O)[C@@H]2C[C@@H](NC(=O)c3sc4ccccc4c3Cl)CN2C1=O` [Example 64] cannot be ordered by IC50: less than 10000 nM for the first, less than 1000 nM for the second.

`CC(C)(C)OC(=O)N[C@H]1CCCCC/C=C\[C@@H]2C[C@@]2(C(=O)NS(=O)(=O)C2CC2)NC(=O)[C@@H]2C[C@@H](NC(=O)c3ccc(-c4ccccc4)cc3)CN2C1=O` [Example 19] and `CC(C)(C)OC(=O)N[C@H]1CCCCC/C=C\[C@@H]2C[C@@]2(C(=O)NS(=O)(=O)C2CC2)NC(=O)[C@@H]2C[C@@H](NC(=O)c3ccc(C(N)=O)cc3)CN2C1=O` [Example 18] cannot be ordered by IC50: less than 100 nM for the first, less than 100 nM for the second.

`CC(C)(C)OC(=O)N[C@H]1CCCCC/C=C\[C@@H]2C[C@@]2(C(=O)NS(=O)(=O)C2CC2)NC(=O)[C@@H]2C[C@@H](NC(=O)c3ccc(N4CCOCC4)nc3)CN2C1=O` [Example 14] and `CC(C)(C)OC(=O)N[C@H]1CCCCC/C=C\[C@@H]2C[C@@]2(C(=O)NS(=O)(=O)C2CC2)NC(=O)[C@@H]2C[C@@H](NC(=O)c3ccc4ncccc4c3)CN2C1=O` [Example 28] cannot be ordered by IC50: less than 100 nM for the first, less than 100 nM for the second.

`CCc1ccc(C(=O)N[C@@H]2C[C@H]3C(=O)N[C@]4(C(=O)O)C[C@H]4/C=C\CCCCC[C@H](NC(=O)OC(C)(C)C)C(=O)N3C2)cc1` [Example 68] and `CC(C)(C)OC(=O)N[C@H]1CCCCC/C=C\[C@@H]2C[C@@]2(C(=O)O)NC(=O)[C@@H]2C[C@@H](NC(=O)c3ccccc3)CN2C1=O` [Example 60] cannot be ordered by IC50: less than 10000 nM for the first, less than 10000 nM for the second.

`CC(C)(C)NC(=O)N[C@H]1CCCCC/C=C\[C@@H]2C[C@@]2(C(=O)NS(=O)(=O)C2CC2)NC(=O)[C@@H]2C[C@@H](NC(=O)c3sc4cc(F)ccc4c3Cl)CN2C1=O` [Example 55] and `CC(C)(C)NC(=O)N[C@H]1CCCCC/C=C\[C@@H]2C[C@@]2(C(=O)NS(=O)(=O)C2CC2)NC(=O)[C@@H]2C[C@@H](NC(=O)c3sc4ccccc4c3Cl)CN2C1=O` [Example 49] cannot be ordered by IC50: less than 100 nM for the first, less than 100 nM for the second.

`CC(C)(C)OC(=O)N[C@H]1CCCCC/C=C\[C@@H]2C[C@@]2(C(=O)NS(=O)(=O)C2CC2)NC(=O)[C@@H]2C[C@@H](NC(=O)c3cccc(C#N)c3)CN2C1=O` [Example 10] and `COc1cccc(C(=O)N[C@@H]2C[C@H]3C(=O)N[C@]4(C(=O)NS(=O)(=O)C5CC5)C[C@H]4/C=C\CCCCC[C@H](NC(=O)OC(C)(C)C)C(=O)N3C2)c1` [Example 7] cannot be ordered by IC50: less than 100 nM for the first, less than 100 nM for the second.

`CC(C)(C)OC(=O)N[C@H]1CCCCC/C=C\[C@@H]2C[C@@]2(C(=O)NS(=O)(=O)C2CC2)NC(=O)[C@@H]2C[C@@H](NC(=O)c3cc4ccccc4s3)CN2C1=O` [Example 43] and `CC(C)(C)OC(=O)N[C@H]1CCCCC/C=C\[C@@H]2C[C@@]2(C(=O)NS(=O)(=O)C2CC2)NC(=O)[C@@H]2C[C@@H](NC(=O)c3sc4ccccc4c3Cl)CN2C1=O` [Example 1] cannot be ordered by IC50: less than 100 nM for the first, less than 100 nM for the second.

`COc1ccc(C(=O)N[C@@H]2C[C@H]3C(=O)N[C@]4(C(=O)NS(=O)(=O)C5CC5)C[C@H]4/C=C\CCCCC[C@H](NC(=O)OC4CCCC4)C(=O)N3C2)cc1` [Example 56] and `CC(C)(C)OC(=O)N[C@H]1CCCCC/C=C\[C@@H]2C[C@@]2(C(=O)NS(=O)(=O)C2CC2)NC(=O)[C@@H]2C[C@@H](NC(=O)c3ccc(-n4ccnc4)cc3)CN2C1=O` [Example 20] cannot be ordered by IC50: less than 100 nM for the first, less than 100 nM for the second.

`O=C(N[C@H]1CCCCC/C=C\[C@@H]2C[C@@]2(C(=O)NS(=O)(=O)C2CC2)NC(=O)[C@@H]2C[C@@H](NC(=O)c3sc4ccccc4c3Cl)CN2C1=O)OCC1CC1` [Example 52] and `CC(CC(=O)N[C@H]1CCCCC/C=C\[C@@H]2C[C@@]2(C(=O)NS(=O)(=O)C2CC2)NC(=O)[C@@H]2C[C@@H](NC(=O)c3sc4ccccc4c3Cl)CN2C1=O)C(F)(F)F` (stereo partly drawn) [Example 53] cannot be ordered by IC50: less than 100 nM for the first, less than 100 nM for the second.

`CC(C)(C)OC(=O)N[C@H]1CCCCC/C=C\[C@@H]2C[C@@]2(C(=O)NS(=O)(=O)C2CC2)NC(=O)[C@@H]2C[C@@H](NC(=O)c3sc4cccc(Cl)c4c3Cl)CN2C1=O` [Example 45] and `CC(C)(C)OC(=O)N[C@H]1CCCCC/C=C\[C@@H]2C[C@@]2(C(=O)NS(=O)(=O)C2CC2)NC(=O)[C@@H]2C[C@@H](NC(=O)c3cnn(-c4ccccc4)c3C(F)(F)F)CN2C1=O` [Example 21] cannot be ordered by IC50: less than 100 nM for the first, less than 100 nM for the second.
